From patent US11517617B2, “Methods and compositions for preventing influenza infection” (THE UNIVERSITY OF MELBOURNE, priority 2017, dated 2022)
Values joined by “and” are separate entries in the source; they are usually repeats but may differ in a detail not shown here. Identical values can stand only once. Like-named read-outs stand apart in the source and are kept apart here. No end group written: not given here.

Assays:
CD8+ T cells = test system: CD8+ T cells; design: species or system transgenic HLA-A24 mice; details: mouse, in vivo
[1] = test system: memory CD8^+ T cells within PBMCs; format: cell-based, human
tetramer^+ CD8^+ T cells [2] = format: cell-based, human
human lung CD8^+ T cells = experiment: Ex vivo tetramer detection in human lung samples from deceased organ donors; format: cell-based; details: for epitope-specific CD8^+ T cells detected within human lung CD8^+ T cells: n=3 lung donors
Text: As human memory CD8^+ T cells also reside outside the circulation, a rare set of human lung samples from deceased organ donors (n=3) were used to assess the presence of universal A2/PB1413^+CD8^+ T cells at the site of infection. CD8^+ T cells specific for A2/M158 and A2/PB1413, but not A2/BHA543 were detected within human lung CD8^+ T cells (2/3 donors for either specificity, FIG. 3f). […] Although based on a limited number of donors, this analysis indicates the presence of universal A2/PB1413^+ tissue-resident memory CD8^+ T cell pools in the human lung.

tetramer^+ CD8^+ T cells [3] = experiment: Tetramer staining of IAV- or IBV-specific CD8^+ T cell lines established in vitro from healthy adult PBMC; format: cell-based, human; details: for tetramer^+ of CD8^+ T cells, median: n=11
Text: Conversely, the universal A2/PB1413 epitope within the IBV-specific T cell lines was immunodominant (0.3%; detected in 8/11 donors) over the IBV-specific A2/BHA543 (0.11%; detected in 10/11 donors) and A2/BNS1266 epitopes (0.01%) (FIG. 4c).

CD8^+ T cells [4] = test system: CD8^+ T cells
HLA-A*02:01 [5] = target: T1, HLA-A*02:01 (Homo sapiens, UniProt P04439, D140Y/D185E/D98H/E176V/E277Q/G131W/G231S/I119V/I121R/I166T/I218V/L300P/L318F/N151K/N90K/P208A/P217A/Q86G/Q94H/R138H/R169H/T345S); details: reference 34; cited from earlier work
CD8^+ T cells [6] = test system: CD8^+ T cells; design: species or system HHD-A2 mice; details: mouse, in vivo
CD8^+ T cells [7] = experiment: Recall responses in HHD-A2 mice primed with B/Malaysia and challenged with B/Phuket; format: in vivo
Text: To further verify the immunogenicity of these epitopes in recall responses, HHD-A2 mice were primed i.n. with B/Malaysia, infected with the heterologous strain B/Phuket 6 weeks later and then assessed CD8^+ T cells against the main epitopes A2/BHA543-551 and A2/BNS1266-274 in the spleen on d8 after challenge.

CD8^+ T cells [8] = experiment: In vitro screening and validation in HLA-A*02:01-expressing human PBMCs, CD8^+ T cell lines, IFNγ/TNF ICS; format: cell-based
Text: As a next step, the IBV-specific CD8^+ T cell responses towards the 67 LC/MS-identified IBV-peptides in HLA-A*02:01-expressing individuals were dissected. CD8^+ T cell lines specific for each of the 6 peptide pools were established, and then re-stimulated cells with the cognate pool in an IFNγ/TNF ICS assay (FIG. 2f).
To validate these responses independently of the peptide pools, CD8^+ T cell lines were established towards individual immunogenic peptides (FIG. 2i). […] Thus, these thorough in vivo and in vitro analyses identified 5 novel peptides recognized by CD8^+ T cells in complex with the HLA-A*02:01 molecule, with BHA543-551 being immunodominant amongst the peptides tested, in both mice and humans.
Peripheral blood mononuclear cells (PBMC) from healthy A2:01+ donors were cultured in the presence of antigens (10 μM peptide) for 10 days in the presence of IL-2 (10 U/ml). On day 10 PBMCs were stimulated with peptides (1 μM) for 5 hours in the presence of BFA. Cells were surface stained for CD3 and CD8 and intracellularly stained for IFNγ and TNF using the BD cytofix/cytoperm kit according to the manufacturer's instructions (BD Biosciences).
Any pools with positive ICS responses were then dissected to their individual peptides.

HLA-A*02:01 [9] = target: T1, HLA-A*02:01; experiment: Thermal stability of pHLA-A*02:01 complex (Tm); format: binding
CD8^+ T cells [10] = format: cell-based, human
CD8^+ T cells [11] = format: cell-based, human; remark: listed apart in the source
tetramer^+CD8^+ T cells = format: cell-based, human
CD8+ T Lymphocytes = format: cell-based, human
A2/PB1413^+CD8^+ T cells = format: cell-based, human
IBV = test system: IBV; design: species or system HHD-A2 mice; details: mouse, in vivo
[12] = test system: A2/PB1413-specific CD8^+ T cells; format: cell-based, human; details: n=24
CD8^+ T cells [13] = test system: CD8^+ T cells; design: species or system A24 mice; details: mouse
[14] = IAV-specific CD8^+ T cell lines
[15] = T cell lines towards individual peptides, n=6

Sequence: AAYEDLRVL (Influenza B virus) [NP392-400]
- immunogenicity (induction of IFNγ production in CD8+ T cells after peptide re-stimulation) (CD8+ T cells): immunogenic

Sequence: FEDLRVLSA (Influenza A virus) [NP338-345]
- memory CD8^+ T cell responses (IFN-γ production after peptide re-stimulation) [1]: robust memory CD8^+ T cell responses

Sequence: GILGFVFVL [M158-66, GILGFVFVL, reference compound]
- CD38^+/Ki-67^+ expression of tetramer-positive CD8^+ T cells (tetramer^+ CD8^+ T cells [2]): increase
- increase in frequency of epitope-specific CD8^+ T cells in blood versus healthy donors (tetramer^+ CD8^+ T cells [2]): 4.3 fold
- individuals with detected epitope-specific CD8^+ T cells (tetramer^+ CD8^+ T cells [2]): 100%
- epitope-specific CD8^+ T cells detected within human lung CD8^+ T cells (human lung CD8^+ T cells): 2/3
- donors with detected tetramer^+ cells (tetramer^+ CD8^+ T cells [3]; [14]): 11 donors
- tetramer^+ of CD8^+ T cells, median (tetramer^+ CD8^+ T cells [3]; [14]): 3.9%
- EC50 (CD8^+ T cells [4]): 8.1 nM
- Tm (temperature required to unfold 50% of the protein) of pHLA-A*02:01 complex (HLA-A*02:01 [5]): 65 °C

Sequence: GLDNHTILL [HA543-551, GLDNHTILL]
- CD8+ T cell responses (IFNγ and TNF production) (CD8^+ T cells [6]): CD8+ T cell responses were targeted
- CD8^+ T cell response, mean (CD8^+ T cells [6]): 5 % of CD8^+ T cells
- CD8^+ T cell responses at the site of infection (CD8^+ T cells [6]): targeted
- polyfunctional IFNγ^+TNF^+IL-2^+ CD8^+ T cells (CD8^+ T cells [7]; primary infection): 0.14 % of CD8^+ T cells
- polyfunctional IFNγ^+TNF^+IL-2^+ CD8^+ T cells (CD8^+ T cells [7]; secondary infection, p=0.013): 2.14 % of CD8^+ T cells
- number of secondary IFNγ^+TNF^+ CD8^+ T cells in the spleen versus primary infection (CD8^+ T cells [7]; spleen d8 after B/Phuket challenge, not statistically significant): ~27 fold
- ICS responses in healthy A2:01+ donors (CD8^+ T cells [8]; 10 days culture with 10 μM peptide and IL-2, re-stimulation 1 μM): detected across multiple donors
- CD8^+ T cell response hierarchy of individual peptides (CD8^+ T cells [8]; HLA-A*0201^+ donors, dissection of pools into individual peptides): immunodominant epitope
- CD8^+ T cell response, median (CD8^+ T cells [8]; [15]): 7.35 % of CD8^+ T cells
- donors with response (CD8^+ T cells [8]; [15]): 6/6
- CD38^+/Ki-67^+ expression of tetramer-positive CD8^+ T cells (tetramer^+ CD8^+ T cells [2]): increase
- increase in numbers of epitope-specific CD8^+ T cells versus healthy donors (tetramer^+ CD8^+ T cells [2]): 2.2 fold
- individuals with detected epitope-specific CD8^+ T cells (tetramer^+ CD8^+ T cells [2]): 75%
- epitope-specific CD8^+ T cells detected within human lung CD8^+ T cells (human lung CD8^+ T cells): not
- donors with detected tetramer^+ cells (tetramer^+ CD8^+ T cells [3]; IBV-specific T cell lines): 10/11
- tetramer^+ of CD8^+ T cells, median (tetramer^+ CD8^+ T cells [3]; IBV-specific T cell lines): 0.11%
- Tm (temperature required to unfold 50% of the protein) of pHLA-A*02:01 complex (HLA-A*02:01 [9]): ~72 °C
- polyfunctionality (CD8^+ T cells [10]): inferior
- additional low avidity CD8^+ T cells detected by Q115E staining (CD8^+ T cells [11]): could be detected
- d14 frequency lower than universal A2/PB1413^+CD8^+ T cells (tetramer^+CD8^+ T cells): 5 fold
- EC50 (CD8^+ T cells [4]): 0.78 nM

Sequence: IYFSPIRVTF (Influenza B virus) [NP164-173]
- immunogenicity (induction of IFNγ production in CD8+ T cells after peptide re-stimulation) (CD8+ T cells): immunogenic

Sequence: IYHPGGNKL (Influenza B virus) [PB2245-253]
- immunogenicity (induction of IFNγ production in CD8+ T cells after peptide re-stimulation) (CD8+ T cells): immunogenic

Sequence: KYVLFHTSL (Influenza B virus) [PA457-465]
- CD8+ T cell responses (IFNγ) after single peptide re-stimulation (CD8+ T Lymphocytes): immunogenic response

Sequence: LYSDILLKF (Influenza B virus) [NA32-40]
- immunogenicity (induction of IFNγ production in CD8+ T cells after peptide re-stimulation) (CD8+ T cells): immunogenic

Sequence: NFAMELPSF (Influenza B virus) [PB1503-511]
- CD8+ T cell responses (IFNγ) after single peptide re-stimulation (CD8+ T Lymphocytes): immunogenic response

Sequence: NMLSTVLGV [PB1413-421, NMLSTVLGV]
- memory CD8^+ T cell responses (IFN-γ production after peptide re-stimulation) [1]: robust memory CD8^+ T cell responses
- IFN-γ production towards peptide (A2/PB1413^+CD8^+ T cells): minimal
- magnitude of A2/PB1413-specific CD8^+ T cells (A2/PB1413^+CD8^+ T cells): markedly increased
- epitope-specific CD8^+ T cells after immunization (IBV): could not be detected
- CD38^+/Ki-67^+ expression of tetramer-positive CD8^+ T cells (tetramer^+ CD8^+ T cells [2]): increase
- increase in frequency of epitope-specific CD8^+ T cells in blood versus healthy donors (tetramer^+ CD8^+ T cells [2]): 6 fold
- increase in numbers of epitope-specific CD8^+ T cells versus healthy donors (tetramer^+ CD8^+ T cells [2]): 2.6 fold
- individuals with detected epitope-specific CD8^+ T cells (tetramer^+ CD8^+ T cells [2]): 50% and 87.5%
- phenotype of the majority of lung tetramer^+ CD8^+ T cells (human lung CD8^+ T cells; human lung): tissue-resident memory CD69^+CD103^+CD45RO^+ phenotype
- epitope-specific CD8^+ T cells detected within human lung CD8^+ T cells (human lung CD8^+ T cells): 2/3
- donors with detected tetramer^+ cells (tetramer^+ CD8^+ T cells [3]; [14]): 10/11
- tetramer^+ of CD8^+ T cells, median (tetramer^+ CD8^+ T cells [3]; [14]): 0.12%
- donors with detected tetramer^+ cells (tetramer^+ CD8^+ T cells [3]; IBV-specific T cell lines): 8/11
- tetramer^+ of CD8^+ T cells, median (tetramer^+ CD8^+ T cells [3]; IBV-specific T cell lines): 0.3%
- Tm (temperature required to unfold 50% of the protein) of pHLA-A*02:01 complex (HLA-A*02:01 [9]): ~72 °C
- additional low avidity CD8^+ T cells detected by Q115E staining (CD8^+ T cells [11]): no additional
- increase from baseline to d14 (tetramer^+CD8^+ T cells): 19 fold
- healthy donors with detectable levels of epitope-specific CD8^+ T cells [12]: 80%
- EC50 (CD8^+ T cells [4]): 0.89 nM

Sequence: RYGFVANF (Influenza A virus) [PB1498-505]
- in vivo CD8^+ T cell responses (CD8^+ T cells [13]): targeted

Sequence: SFSFGGFTF (Influenza A virus) [PB2322-330]
- in vivo CD8^+ T cell responses (CD8^+ T cells [13]): targeted
